The text below walks through data of the OPERA property sets (Mansouri et al. 2018).

Each structure is given as a SMILES string.

Usually logP stands for the decadic logarithm of the partition coefficient of the neutral form, usually between octanol and water. Take `S=c1ssc2c1CCCCCC2`: the logP was found to be 3.75. To `S=c1cc(-c2ccccc2)ss1` belongs 3.67; to `Cc1cssc1=O`, 1.33. `CCc1ssc(=O)c1CC`: the logP was found to be 2.78. For `CCCc1cssc1=S`, the logP amounted to 3.18. To `S=c1ssc2ccccc12` belongs 3.57; to `Cc1ssc(=S)c1C`, 2.45.

`Cc1ssc(=O)c1-c1ccccc1` registered a lipophilicity (logP) of 2.93. To `Cc1cc(=S)ss1` belongs 1.89; to `CCc1ssc(=S)c1C`, 2.95.

For `CCCc1cssc1=O`, the logP worked out at 2.38. As for `CCCc1cc(=O)ss1`, the figure is 2.24; as for `Cc1cssc1=S`, 2.18; as for `CCc1cssc1=O`, 1.9. As for `CCCc1ssc(=S)c1CC`, the figure is 3.76; as for `CCCc1cc(=S)ss1`, 2.83. As for `CCc1cssc1=S`, the figure is 2.67; as for `CCc1ssc(=O)c1-c1ccccc1`, 3.15; as for `CCCc1ssc(=S)c1C`, 3.42. With `CCCc1c(C)ssc1=O`, the logP came out at 2.96. To `CCCCc1cssc1=S` belongs 3.7. To `CCc1c(C)ssc1=S` belongs 2.94; to `O=c1ssc2ccccc12`, 2.73; to `Cc1cc(=O)ss1`, 1.26.

The molecule `Cc1ssc(=S)c1Cc1ccccc1` came in with a logP of 3.78.

`S=c1ssc2c1CCC2` registered a logP of 2.53. To `CCc1ssc(=S)c1CC` belongs 3.51; to `CCc1cc(=O)ss1`, 1.69. To `O=c1ccss1` belongs 0.82. To `O=c1cc(-c2ccccc2)ss1` belongs 3.01; to `COc1ccc(-c2ssc(=S)c2C)cc1`, 4.1. As to `Cc1c(-c2ccccc2)ssc1=S`, the logP amounted to 3.95. As for `S=c1sscc1-c1ccccc1`, the figure is 3.2; as for `O=c1sscc1-c1ccccc1`, 2.64.

Molecule `S=c1ccss1` returned a logP of 1.58.

For the molecule `CCCCCc1cssc1=S`, the logP is 4.06.

Molecule `COc1ccc(-c2cc(=S)ss2)cc1` displayed a log partition coefficient (logP) of 3.82.

As for `Cc1ssc(=S)c1-c1ccccc1`, the logP was determined as 3.17. As for `CCc1ssc(=S)c1-c1ccccc1`, the figure is 3.52. With `Cc1ccc(-c2cc(=S)ss2)cc1`, the logP was 4.26. To `Cc1ssc(=O)c1C` belongs 1.73; to `CCCc1c(C)ssc1=S`, 3.39; to `Cc1ccc(-c2cssc2=S)cc1`, 3.73. Molecule `S=c1ssc2c1CCCCC2` showed a logP of 3.27. As for `S=c1cc(Cc2ccccc2)ss1`, the figure is 3.43; as for `CCc1cc(=S)ss1`, 2.31; as for `O=c1ssc2c1CCCC2`, 2.4.
